In PMC11999743 (Journal of Analytical Methods in Chemistry, 2025):
Where a name gives a salt, the structure may show the parent alone.

Experiment: Pharmacokinetic study in naive mice after intraperitoneal injection
Conditions: 3 mg/kg; for V_F: uncorrected for bioavailability
Description: Nine-week-old male Swiss mice (Janvier Labs, Le Genest-Saint-Isle, France), weighing 35–45 g at the time of experimentation, were used. […] Food and tap water were given ad libitum.
Their hind legs were depilated after a 1 min application of a commercial depilatory cream and rinsed with water. Subsequently, the mice were returned to their cages to allow for recovery and complete anesthesia washout. On the day of the experiment, an initial blood sample (20–30 μL) was collected by perforation of the saphenous vein from the mice.
For each treatment group, mice were subdivided into two cohorts, with blood samples collected at distinct time intervals after injection, totaling 14 time points for pharmacokinetic modeling. Compliance with regulatory directives prevented the collection of more than eight blood samples from individual animals. […] Blood samples were acquired using heparinized capillaries containing 2 μL of sodium heparin (Panpharma, France). After collection, the samples were transferred to Eppendorf tubes and centrifuged at 3000 g and 4°C for 10 min. The recovered plasma was then stored at −80°C until analysis. At the end of the experiments, the mice were euthanized by i.p. lethal injection (150 mg/kg) of sodium pentobarbital (Doléthal, Vétoquinol SA, France).
Pharmacokinetic analysis was carried out from the average concentration values at each time point using the Phoenix WinNonLin Version 8.4 software (Certara, Princeton NJ, USA). Pharmacokinetic parameters were determined from the plasma concentration-time data using a compartmental approach and include the total area under the plasma concentration-time curve (AUC0-∞), elimination half-life (t1/2elim), total clearance (CL/F), and volume of distribution (V). CL and V were uncorrected for the bioavailability (F).

[1] = male, Swiss, mouse, in vivo, ip

AUC [1] | CL/F [1] | Cmax [1] | Tmax (male, Swiss, mouse, in vivo, ip, T max, naive mice, plasma) | half-life (male, Swiss, mouse, in vivo, ip, t 1/2elim, naive mice, plasma) | T max (naive mice, i.p., plasma) | t 1/2elim (naive mice, i.p., plasma) | Time after which plasma concentrations were below the LLOQ (naive mice, i.p., LLOQ 0.5 ng/mL tiotropium, 1 ng/mL atropine) | SMILES | V_F (naive mice, i.p.)
 |  |  |  |  |  |  |  | CN1[C@@H]2CC[C@H]1C[C@@H](OC(=O)C(CO)c1ccccc1)C2 (stereo partly shown) [Atropine, Atropine sulfate monohydrate] | 5.204 ± 0.43 L/kg
199 ng·h/mL | 201 ± 5 mL/min/kg | 705 ± 22 ng/mL | 4.9 min | ~7.5 min | 4.89 ± 0.24 min | 7.43 ± 0.12 min | 60 min | C[N+]1(C)[C@@H]2C[C@@H](OC(=O)C(O)(c3cccs3)c3cccs3)C[C@H]1[C@@H]1O[C@@H]12 [Tiotropium, Tiotropium bromide monohydrate] | 2.158 ± 0.075 L/kg
